The values that follow come from patent publication US12156871B2, “Substituted azacycles as muscarinic M1 receptor positive allosteric modulators” (SUVEN LIFE SCIENCES LIMITED, priority 2017, dated 2024).

Series [1] is described as follows: Protein binding assay (HT dialysis), dog liver microsomes. The class given is in vitro ADME. The following applies: pH 7.4, Dog liver microsomes 0.5 mg/mL, Mean ± SEM, n = 3, read-out: Fu Microsomes (converted). The protocol:
(§1) Unbound fractions of test compounds in plasma, brain homogenate and liver microsomes were determined using high-throughput dialysis (HT dialysis). Briefly, dialysis membranes were soaked in deionized water for 20 minutes and then in deionized water with 30% ethanol for 15 minutes and finally in phosphate buffer until use. Membranes were rinsed in phosphate buffer before assembling. The membranes were layered between teflon bars of dialysis assembly. Stock solutions of test compound/comparative compound were prepared at 10 mM in DMSO, diluted to 1 mM in acetonitrile and further diluted to 100 μM in mixture of water and acetonitrile (1:1 v/v). Human plasma (pool of 3) was prepared from human blood (3 donors) by centrifuging at 4000 rpm for 10 min at 4° C. Rat and dog blood were obtained on the day of the study and centrifuged to obtain plasma. Rat brains were isolated, cleaned and homogenized with 2 volumes of buffer (3 fold dilution). Liver microsomes were prepared at 0.5 mg/mL in phosphate buffer (100 mM, pH 7.4). The dialysate chambers were loaded with 150 μL of 100 mM phosphate buffer (pH 7.4) in triplicates. The matrix chambers were loaded with 150 μL of the plasma or brain homogenate or microsomal suspension spiked with test compound/comparative compound at a final concentration of 1 μM. 50 μL of the sample was removed from both the chambers at 0 h. The plate was sealed and incubated at 37° C. for 6 h at 100 rpm. After 6 h, 50 μL of the sample was removed from both the chambers. Equal volumes of buffer or human plasma/microsomal suspension were added to the plasma/microsomal and buffer samples respectively to create identical sample matrices for analysis. The samples were precipitated with 150 μL of acetonitrile containing fluoxetine as an internal standard. All the samples were centrifuged at 10000 rpm for 10 minutes at 4° C.
In general terms: Liver microsomes are a subcellular fraction often used to study metabolism.

Series [2] is described as follows: Object recognition task model. The class given is in vivo, Male Wistar rats. The following applies: rat, 3 mg/kg, p.o.; for Exploration time mean ± S.E.M, Familiar object / Exploration time mean ± S.E.M, Novel object: choice trial 24 h after T1. The protocol: The cognition enhancing properties of compounds of this invention were estimated by using this model.
Male Wistar rats (8-10 weeks old) were used as experimental animals. Four animals were housed in each cage. Animals were kept on 20% food deprivation from a day prior to experimentation. Water was provided ad libitum throughout the experiment. Animals were maintained on a 12 h light/dark cycle in temperature and humidity controlled room. The experiment was carried out in an circular made up of acrylic. Rats were habituated to individual arenas for up to 1 h in the absence of any objects on day 1.
One group of 12 rats received vehicle and another set of animals received compound of the formula (I), before the familiar (T1) and choice (T2) trials. During the familiarization phase, (T1), the rats were placed individually in the arena for 3 minutes, in which two identical objects (a1 and a2) were positioned 10 cm from the wall. 24 h after T1, trial for long-term memory test was performed. The same rats were placed in the same arena as they were placed in T1 trial. During the choice phase (T2) rats were allowed to explore the arena for 3 minutes in presence of a copy of familiar object (a3) and one novel object (b). During the T1 and T2 trial, explorations of each object (defined as sniffing, licking, chewing or having moving vibrissae whilst directing the nose towards the object at a distance of less than 1 cm) were recorded using stopwatch. • T1 is the total time spent exploring the familiar objects (a1+a2). • T2 is the total time spent exploring the familiar object and novel object (a3+b).
The object recognition test was performed as described by Ennaceur, A., Delacour, J., 1988, A new one-trial test for neurobiological studies of memory in rats—Behavioural data, Behav. Brain Res., 31, 47-59.

Series [3] in a line: Rodent pharmacokinetic study. In kind it is in vivo, Male Wistar rats. The following applies: rat; for AUC(0-t) / clearance / half-life / Cmax: male, Wistar, plasma; for F: oral 3 mg/kg vs i.v. 1 mg/kg. As for the experimental part: Male Wistar rats (260±50 grams) were used as experimental animals. Animals were housed individually in polypropylene cage. Two days prior to study, male Wistar rats were anesthetized with isoflurane for surgical placement of jugular vein catheter. Rats were randomly divided for oral (3 mg/kg) and intravenous (i.v) (1 mg/kg) dosing (n=3/group) and fasted overnight before oral dosing (p.o.). However, rats allocated to intravenous (i.v.) dosing food and water was provided ad libitum.
At pre-determined point, blood was collected through jugular vein and replenished with an equivalent volume of normal saline. Collected blood was transferred into a labeled eppendorf tube containing 10 μL of heparin as an anticoagulant. Typically blood samples were collected at following time points: 0.08, 0.25, 0.5, 1, 2, 4, 6, 8, and 24 h post dose. Blood was centrifuged at 4000 rpm for 10 minutes. Plasma was separated and stored frozen at −80° C. until analysis. The concentrations of the test compounds were quantified in plasma by qualified LC-MS/MS method using suitable extraction technique. The test compounds were quantified in the calibration range around 1-1000 ng/mL in plasma. Study samples were analyzed using calibration samples in the batch and quality control samples spread across the batch.
Pharmacokinetic parameters Cmax, AUCt, T1/2, clearance and bioavailability (F) were calculated by non-compartmental model using standard non-compartmental model by using Phoenix WinNonlin 6.0.2 or 6.0.3 version Software package and the results are tabulated below.

The nature of series [4]: Protein binding assay (HT dialysis), rat brain homogenate. The class given is in vitro ADME. The following applies: pH 7.4, Mean ± SEM, n = 3, read-out: Fu Brain. The protocol: as §1
Series [5] is described as follows: Protein binding assay (HT dialysis), rat plasma. The class given is in vitro ADME. The following applies: pH 7.4, Mean ± SEM, n = 3, read-out: Fu Plasma. The protocol:
as §1

SMILES strings stand for the structures.

As a reminder, the AUC(0-t) is exposure summed from dosing to a finite time, without extrapolation to infinity. What is called clearance is the volume of plasma or blood freed of the substance per unit of time. In general, half-life refers to the time in which the quantity being followed falls by half. Read a high half-life as slow loss. One may read the Cmax as the peak of the concentration-time curve.

As to `COc1cccc(Cc2cc3c(nc2C)CN([C@H]2CCCC[C@@H]2O)C3=O)c1` [Example 38, 6-(1S,2S-2-Hydroxycyclohexyl)-2-methyl-3-(3-methoxybenzyl)-6,7-dihydropyrrolo[3,4-b]pyridin-5-one], in series [1], the fraction unbound at 6 h, 1 μM is 0.843. In series [2], the Inference entry is “Active”; the “Exploration time mean ± S.E.M, Familiar object” value amounted to 10.12 ± 2.12 s; the “Exploration time mean ± S.E.M, Novel object” value was determined as 19.89 ± 3.32 s. Besides, in series [3] (iv, i.v. 1 mg/kg), the AUC(0-t) came to 662 ± 33 ng·h/mL, the clearance came out at 25.1 ± 1.2 mL/min/kg and the half-life is 30 min. In series [3] (oral 3 mg/kg), the exposure AUC(0-t) is 1010 ng·h/mL, the Cmax amounted to 861 ± 168 ng/mL and the half-life is 36 ± 6 min. In series [3], the F is given as 51 ± 17%. Moreover, the fraction unbound at 6 h, 1 μM in series [4] amounted to 0.084 ± 0.002. For the same compound, the fraction unbound at 6 h, 1 μM in series [5] worked out at 0.103 ± 0.003.
For the compound `COc1ccc(Cc2cc3c(nc2C)CN([C@H]2CCCC[C@@H]2O)C3=O)cc1` [Example 6, 6-(1S,2S-2-Hydroxycyclohexyl)-2-methyl-3-(4-methoxybenzyl)-6,7-dihydropyrrolo[3,4-b]pyridin-5-one], in series [1], the fraction unbound at 6 h, 1 μM was 0.906. In addition, in series [2], the Inference result was “Active”; the “Exploration time mean ± S.E.M, Familiar object” value was 7.27 ± 1.31 s; the “Exploration time mean ± S.E.M, Novel object” value worked out at 15.9 ± 2.47 s. Besides, in series [3] (iv, i.v. 1 mg/kg), the area under the curve AUC(0-t) stood at 1750 ± 312 ng·h/mL, the clearance was determined as 9.3 ± 2 mL/min/kg and the half-life was 114 ± 30 min. Also, in series [3] (oral 3 mg/kg), the AUC(0-t) came to 3520 ng·h/mL, the highest level (Cmax) was 1470 ± 26.5 ng/mL and the half-life is 78 ± 6 min. Also, in series [3], the F is on record as 67 ± 5%. Further, in series [4], the fraction unbound at 6 h, 1 μM was 0.123 ± 0.009. In series [5], the fraction unbound at 6 h, 1 μM turned out to be 0.113 ± 0.003.
